Measurements reported in PubChem BioAssay (NCI).
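Exposure lasted 48 hours, with cells grown in 96-well plates and compounds tested at five concentrations. TGI denotes the concentration required for complete inhibition of growth.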

Experiments:
Test in all cases: growth of human tumour cells (NCI), 48 h
[1] = test system: U251 CNS
[2] = test system: DU-145 prostate
[3] = test system: MOLT-4 leukemia
[4] = test system: EKVX NSCLC
[5] = test system: COLO 205 colon
[6] = test system: A498 renal
[7] = test system: NCI-H460 lung
[8] = test system: UACC-62 melanoma
[9] = test system: OVCAR-4 ovarian
[10] = test system: A549 NSCLC
[11] = test system: HCT-116 colon
[12] = test system: NCI-H23 lung
[13] = test system: SW-620 colon
[14] = test system: T-47D breast
[15] = test system: CCRF-CEM leukemia
[16] = test system: 786-0 renal
[17] = test system: OVCAR-5 ovarian
[18] = test system: RXF 393 renal
[19] = test system: HCC-2998 colon
[20] = test system: RPMI-8226 leukemia
[21] = test system: HT29 colon
[22] = test system: MCF7 breast
[23] = test system: UO-31 renal
[24] = test system: SK-MEL-28 melanoma
[25] = test system: SF-295 CNS
[26] = test system: K-562 leukemia
[27] = test system: SF-539 CNS
[28] = test system: NCI-H226 lung
[29] = test system: SN12C renal
[30] = test system: HOP-62 NSCLC
[31] = test system: KM12 colon
[32] = test system: LOX IMVI melanoma
[33] = test system: HOP-92 NSCLC
[34] = test system: UACC-257 melanoma
[35] = test system: SK-MEL-5 melanoma
[36] = test system: M14 melanoma
[37] = test system: SR leukemia
[38] = test system: HCT-15 colon
[39] = test system: NCI/ADR-RES ovarian
[40] = test system: SF-268 CNS
[41] = test system: SK-OV-3 ovarian
[42] = test system: HL-60(TB) leukemia
[43] = test system: SNB-19 CNS
[44] = test system: MALME-3M melanoma
[45] = test system: PC-3 prostate
[46] = test system: OVCAR-3 ovarian
[47] = test system: HS 578T breast
[48] = test system: TK-10 renal
[49] = test system: ACHN renal
[50] = test system: MDA-N
[51] = test system: MDA-MB-231 breast
[52] = test system: MDA-MB-435
[53] = test system: CAKI-1 renal
[54] = test system: BT-549 breast
[55] = test system: OVCAR-8 ovarian
[56] = test system: NCI-H522 lung
[57] = test system: SK-MEL-2 melanoma
[58] = test system: IGROV1 ovarian
[59] = test system: SNB-75 CNS

COc1ccc(-c2ccc(C(=O)C=P(c3ccccc3)(c3ccccc3)c3ccccc3)cc2)cc1
TGI [1]: 31.9 µM | TGI [2]: 39.4 µM | TGI [3]: 10.9 µM | TGI [4]: 38.6 µM | TGI [5]: 13.9 µM | TGI [6]: 31.9 µM | TGI [7]: 20.5 µM | TGI [8]: 28.9 µM | TGI [9]: 25 µM | TGI [10]: 25.9 µM | TGI [11]: 32.3 µM | TGI [12]: 51 µM | TGI [13]: 37.8 µM | TGI [14]: 62.3 µM | TGI [15]: > 100 µM | TGI [16]: 37.5 µM | TGI [17]: 44.8 µM | TGI [18]: 27 µM | TGI [19]: 15.2 µM | TGI [20]: 5.01 µM | TGI [21]: 19.4 µM | TGI [22]: 30.2 µM | TGI [23]: 13 µM | TGI [24]: 32 µM | TGI [25]: 40.3 µM | TGI [26]: 20.6 µM | TGI [27]: 35.9 µM | TGI [28]: 27.7 µM | TGI [29]: 28.5 µM | TGI [30]: 43.9 µM | TGI [31]: 36.6 µM | TGI [32]: 31.5 µM | TGI [33]: 34 µM | TGI [34]: 45.2 µM | TGI [35]: 22.4 µM | TGI [36]: 31.6 µM | TGI [37]: 73.6 µM | TGI [38]: 29.6 µM | TGI [39]: 37.5 µM | TGI [40]: 71.4 µM | TGI [41]: 34.9 µM | TGI [42]: 6.77 µM | TGI [43]: > 100 µM | TGI [44]: 43.9 µM | TGI [45]: 49 µM | TGI [46]: 20.1 µM | TGI [47]: 67.6 µM | TGI [48]: 47.1 µM | TGI [49]: 30.7 µM | TGI [50]: 28.9 µM | TGI [51]: 30.7 µM | TGI [52]: 30 µM | TGI [53]: 42 µM

C=C(NC(=O)C(=C)NC(=O)c1ccc2c(n1)-c1coc(n1)C(=C)NC(=O)C(=C)NC(=O)c1nc(oc1C)C(=C)NC(=O)C(C(C)(C)O)NC(=O)C(=C)NC(=O)c1coc(n1)/C(=C/C)NC(=O)[C@H]([C@@H](C)O)NC(=O)c1csc-2n1)C(N)=O (stereo not given in full)
TGI [1]: > 87.5 µM | TGI [2]: > 87.5 µM | TGI [3]: > 87.5 µM | TGI [4]: > 87.5 µM | TGI [5]: > 87.5 µM | TGI [6]: > 87.5 µM | TGI [7]: > 87.5 µM | TGI [9]: > 87.5 µM | TGI [10]: > 87.5 µM | TGI [11]: > 87.5 µM | TGI [12]: > 87.5 µM | TGI [13]: > 87.5 µM | TGI [54]: > 87.5 µM | TGI [15]: > 87.5 µM | TGI [16]: > 87.5 µM | TGI [17]: > 87.5 µM | TGI [18]: > 87.5 µM | TGI [19]: > 87.5 µM | TGI [20]: > 87.5 µM | TGI [21]: > 8.75 µM | TGI [55]: > 87.5 µM | TGI [22]: > 87.5 µM | TGI [23]: > 87.5 µM | TGI [24]: > 87.5 µM | TGI [25]: > 87.5 µM | TGI [26]: > 87.5 µM | TGI [27]: > 87.5 µM | TGI [28]: > 87.5 µM | TGI [29]: > 87.5 µM | TGI [30]: > 87.5 µM | TGI [56]: > 87.5 µM | TGI [31]: > 87.5 µM | TGI [32]: > 87.5 µM | TGI [33]: > 87.5 µM | TGI [34]: > 87.5 µM | TGI [35]: > 87.5 µM | TGI [57]: > 87.5 µM | TGI [36]: > 87.5 µM | TGI [37]: > 87.5 µM | TGI [38]: > 87.5 µM | TGI [39]: > 87.5 µM | TGI [40]: > 87.5 µM | TGI [42]: > 87.5 µM | TGI [43]: > 87.5 µM | TGI [44]: > 87.5 µM | TGI [45]: > 87.5 µM | TGI [58]: > 87.5 µM | TGI [46]: > 87.5 µM | TGI [47]: > 87.5 µM | TGI [48]: > 87.5 µM | TGI [49]: > 87.5 µM | TGI [50]: > 87.5 µM | TGI [51]: > 87.5 µM | TGI [59]: > 87.5 µM | TGI [52]: > 87.5 µM | TGI [53]: > 87.5 µM

O=c1c2cc(Br)cc(Br)c2[nH]c(=S)n1-c1ccc(N=Nc2ccc(O)c3cccnc23)cc1
TGI [1]: 62.3 µM | TGI [2]: > 100 µM | TGI [3]: > 100 µM | TGI [4]: > 100 µM | TGI [5]: > 100 µM | TGI [6]: > 100 µM | TGI [9]: > 100 µM | TGI [10]: > 100 µM | TGI [11]: > 100 µM | TGI [13]: > 100 µM | TGI [14]: > 100 µM | TGI [16]: > 100 µM | TGI [17]: > 100 µM | TGI [18]: > 100 µM | TGI [20]: > 100 µM | TGI [21]: > 100 µM | TGI [55]: > 100 µM | TGI [22]: 25.9 µM | TGI [23]: > 100 µM | TGI [24]: > 100 µM | TGI [25]: > 100 µM | TGI [26]: > 100 µM | TGI [27]: 31.3 µM | TGI [28]: > 100 µM | TGI [29]: > 100 µM | TGI [30]: > 100 µM | TGI [56]: 60.8 µM | TGI [31]: > 100 µM | TGI [32]: > 100 µM | TGI [33]: 41.6 µM | TGI [34]: > 100 µM | TGI [35]: 29 µM | TGI [57]: > 100 µM | TGI [36]: > 100 µM | TGI [37]: > 100 µM | TGI [40]: 57.5 µM | TGI [41]: > 100 µM | TGI [42]: > 100 µM | TGI [43]: 61.2 µM | TGI [44]: 43.2 µM | TGI [45]: > 100 µM | TGI [58]: 34.5 µM | TGI [46]: 28.5 µM | TGI [47]: > 100 µM | TGI [48]: > 100 µM | TGI [49]: > 100 µM | TGI [50]: > 100 µM | TGI [51]: > 100 µM | TGI [59]: > 100 µM | TGI [52]: > 100 µM | TGI [53]: > 100 µM
